One block for each molecule: values may come before it.
Experiments:
HMC1.1 cells = assay: MTS proliferation assay with small-molecule kinase inhibitors, HMC1.1 cells; assay type: cell-based, human; settings: for IC50: 72 hours, MTS assay
Protocol: (§1) K562 cells were obtained from American Type Culture Collection (Manassas, Va.). CMK and HEL cells were obtained from the German National Resource Centre for Biological Material (DSMZ). […] For proliferation assays, cells were incubated for 72 hours in the presence of JAK Inhibitor I, JAK3 inhibitor III, AG-490, PP2, or Src Kinase Inhibitor I (EMD BIOSCIENCES®, San Diego, Calif.), and the number of viable cells was determined with the […] 96® AQueous One solution cell proliferation assay (PROMEGA®, Madison, Wis.). For HMC1.1 cell stimulation, cells were serum starved overnight in RPMI supplemented with 0.1% bovine serum albumin, L-glutamine, and penicillin/streptomycin. The following day, cells were stimulated for five minutes with 100 ng/ml recombinant stem cell factor (Peprotech, Rocky Hill, N.J.).
(§2) For tyrosine kinase siRNA library knockdown experiments, a Student's t test was carried out for each well in comparison to both single and pooled non-specific siRNA controls. The mean of the two-tailed p-value was determined for consideration of significance and data points with p-value less than 0.05 and mean value less than 70% of non-specific controls were considered significant. For cell proliferation assays, a Student's t test was carried out for each dose point comparing HMC1.1 to K562 cell viability.

[1] = biological target: MPL^1886InsGG (thrombopoietin receptor with two base-pair GG insertion in exon 12) (human) (UniProt P40238); assay: cell-based or functional assay; settings: scale: fold lower dose of thrombopoietin than MPL^WT
[2] = system: Patient 07-079, ASM with associated CMML; assay: Midostaurin treatment of patient 07-079; assay type: in vivo, human; settings: patient 07-079, midostaurin 50 mg bid, briefly in combination with hydroxyurea
Protocol: White blood cell counts were monitored over 9 days. Normal white blood cell counts range from 4−12×10^3 per ml. […] Cells were then stimulated for 15 minutes with thrombopoietin (10 ng/ml) and cell lysates were subjected to immunoblot analysis for phospho or total-JAK2 as well as β-actin. […] Cell proliferation was determined after three days. Values represent the percent mean (normalized to untreated control wells)±s.e.m. (n=3).

[3] = system: primary cells from patient samples; assay: Colony assay of primary patient cells in methocult; assay type: cell-based, human; settings: ten days
Protocol: For determination of factor-independent growth, parental BA/F3 cells as well as BA/F3 cells expressing […], or W515L were washed three times and 1 million cells were seeded into triplicate wells of a 6-well plate in R10. Total viable cells were determined every day for 1 week using PI exclusion on a Guava cell counter (GUAVA TECHNOLOGIES®). For colony assays, 200,000 primary cells from patient samples were incubated in the presence of dose gradients of AG490, SU11248, or PTK787 in methocult containing IL-3, GM-CSF, and SCF ([…] TECHNOLOGIES®). Ten days later, colonies were counted manually or using a GELCOUNT® automated colony counter (OXFORD OPTRONIX®, Oxford, UK). For siRNA functional screens on patient samples, a Student's t test was carried out for each well in comparison to both single and pooled non-specific siRNA controls. The mean of the two-tailed p-value was determined for consideration of significance. […] For cell proliferation, cell viability, and colony assays, a Student's t test was carried out for each dose or time point compared with the relevant control cell line or the no drug control.

HEL cells = assay: MTS proliferation assay with kinase inhibitors, HEL cells; assay type: cell-based; settings: HEL cells (JAK2 V617F), 72 hours
Protocol: as §1
(§3) 96 AQueous One solution cell proliferation assay (PROMEGA®). […] Total viable cells were determined every day for 1 week using PI exclusion on a Guava cell counter (GUAVA TECHNOLOGIES®). […] Ten days later, colonies were counted manually or using a GELCOUNT® automated colony counter (OXFORD OPTRONIX®, Oxford, UK).

[4] = system: primary cells from patient samples; assay: Cell viability assay (MTS) of primary patient cells with inhibitor dose gradients; assay type: cell-based, human; settings: cells from CMML patient 07-079, three days
[5] = system: BA/F3 cells expressing MPL 1886InsGG; assay: Proliferation assay, factor-independent BA/F3 cells expressing MPL 1886InsGG; assay type: cell-based; settings: factor-independent BA/F3 MPL 1886InsGG, three days
Protocol: as §3
(§4) MPL was then cloned into a Gateway compatible version of MSCV-IRES-GFP (MIG) by performing an LR recombination reaction. […] One milliliter of viral supernatant was mixed with polybrene (5 mg/ml), HEPES (7.5 mM), and 10^6 BA/F3 cells and placed in a centrifuge at 2500 RPM for 90 minutes at 30° C.

[6] = system: BA/F3 cells expressing MPL W515L; assay: Proliferation assay, factor-independent BA/F3 cells expressing MPL W515L; assay type: cell-based; settings: three days
Protocol: as §3, §4

K562 cells = assay: MTS proliferation assay with small-molecule kinase inhibitors, K562 control cells; assay type: cell-based; settings: concentrations up to and including 10 μM
Protocol: as §1, §2

Molecule: COc1cc2ncnc(Nc3ccc(Oc4ccccc4)cc3)c2cc1OC [SRC inhibitor I]
IC50 (HMC1.1 cells): 5 µM

phosphorylation of JAK2, STAT3, STAT5, ERK and AKT (immunoblot) after thrombopoietin stimulation of BA/F3 cells [1]: 10
Molecule: recombinant thrombopoietin (Peprotech) (ligand)

Molecule: CO[C@@H]1[C@H](N(C)C(=O)c2ccccc2)C[C@H]2O[C@]1(C)n1c3ccccc3c3c4c(c5c6ccccc6n2c5c31)C(=O)NC4 [midostaurin]
period to normalization of WBC counts [2]: 5 days

Molecule: CC(C)(C)n1nc(-c2ccc(Cl)cc2)c2c(N)ncnc21 [PP2]
IC50 (HMC1.1 cells): 1.5 µM

Molecule: Clc1ccc(Nc2nnc(Cc3ccncc3)c3ccccc23)cc1 [PTK787]
colony formation ([3]; cells from AML patient 07-008, methocult with IL-3, GM-CSF, SCF): blocked by each drug at low nanomolar concentrations

Molecule: N#C/C(=C\c1ccc(O)c(O)c1)C(=O)NCc1ccccc1 [AG-490]
IC50 (HMC1.1 cells): > 50 µM | IC50 (HEL cells): 45 µM | sensitivity in cell viability assay [4]: Strong sensitivity | sensitivity in colony assay ([3]; cells from CMML patient 07-079, methocult): Strong sensitivity | sensitivity to inhibitor [5]: strong sensitivity | sensitivity to inhibitor [6]: strong sensitivity

Molecule: JAK inhibitor I
IC50 (HMC1.1 cells): 5 µM | viability in combination with PP2 (HMC1.1 cells; JAK inhibitor I dose range plus 1.5 μM PP2, compared with JAK inhibitor alone): lower viability readings at all dose points | reduction of viability and proliferation (HMC1.1 cells; maximal reduction despite increasing concentrations): ~50% | sensitivity to inhibitor (K562 cells): resistant

Source: patent publication US20090312194A1, “SELECTION OF PERSONALIZED CANCER THERAPY REGIMENS USING INTERFERING RNA FUNCTIONAL SCREENING” (OREGON HEALTH & SCIENCE UNIVERSITY, priority 2008, published 2009)
